{"source": "patent US20100267561A1", "about": "“HERBICIDAL PYRIDAZINONE DERIVATIVES” (priority 2007, published 2010)", "experiment_in_all_cases": "Test E pre-/postemergence plant response", "assay_type_in_all_cases": "in vivo", "key": {"[1]": {"test_system": "dallisgrass (Paspalum dilatatum)", "conditions": "scale 0 to 100", "from_the_text": "(§1) Seeds of plant species selected from bermudagrass (Cynodon dactylon), Surinam grass (Brachiaria decumbens), large crabgrass (Digitaria sanguinalis), green foxtail (Setaria viridis), goosegrass (Eleusine indica), johnsongrass (Sorghum halepense), kochia (Kochia scoparia), pitted morningglory (Ipomoea lacunosa), purple nutsedge (Cyperus rotundus), common ragweed (Ambrosia elation), black mustard (Brassica nigra), guineagrass (Panicum maximum), dallisgrass (Paspalum dilatatum), barnyardgrass (Echinochloa crus-galli), southern (S.) sandbur (Cenchrus echinatus), common sowthistle (Sonchus oleraceous), prickly sida (Sida spinosa), Italian ryegrass (Lolium multiflorum), common purslane (Portulaca oleracea), broadleaf signalgrass (Brachiaria platyphylla), common groundsel (Senecio vulgaris), common chickweed (Stellaria media), Virginia (V.) dayflower (Commelina virginica), tropical (T.) spiderwort (Commelina benghalensis), annual bluegrass (Poa annua), naked crabgrass (Digitaria nuda), itchgrass (Rottboellia cochinchinensis), quackgrass (Elytrigia repens), Canada horseweed (Conyza canadensis), field bindweed (Convolvulus arvensis), spanishneedles (Bidens bipinnata), common mallow (Malva sylvestris) and Russian thistle (Salsola kali) were planted and treated preemergence with test chemicals formulated in a non-phytotoxic solvent mixture which included a surfactant. At the same time, plants selected from these weed species were treated with postemergence applications of some of the test chemicals formulated in the same manner. Plants ranged in height from 2 to 18 cm (1- to 4-leaf stage) for postemergence treatments.\n(§2) Treated plants and controls were maintained in a greenhouse for 14 to 21 days, after which time all species were compared to controls and visually evaluated. Plant response ratings, summarized in Table E, are based on a scale of 0 to 100 where 0 is no effect and 100 is complete control. A dash (-) response means no test result."}, "[2]": {"test_system": "large crabgrass (Digitaria sanguinalis)", "conditions": "scale 0 to 100", "from_the_text": "as §1, §2"}, "[3]": {"test_system": "naked crabgrass (Digitaria nuda)", "conditions": "scale 0 to 100", "from_the_text": "as §1, §2"}, "[4]": {"test_system": "common groundsel (Senecio vulgaris)", "conditions": "scale 0 to 100", "from_the_text": "as §1, §2"}, "[5]": {"test_system": "broadleaf signalgrass (Brachiaria platyphylla)", "conditions": "scale 0 to 100", "from_the_text": "as §1, §2"}, "[6]": {"test_system": "southern (S.) sandbur (Cenchrus echinatus)", "conditions": "scale 0 to 100", "from_the_text": "as §1, §2"}, "[7]": {"test_system": "common chickweed (Stellaria media)", "conditions": "Postemergence, scale 0 to 100", "from_the_text": "as §1, §2"}, "[8]": {"test_system": "common purslane (Portulaca oleracea)", "conditions": "scale 0 to 100", "from_the_text": "as §1, §2"}, "[9]": {"test_system": "quackgrass (Elytrigia repens)", "conditions": "scale 0 to 100", "from_the_text": "as §1, §2"}, "[10]": {"test_system": "Italian ryegrass (Lolium multiflorum)", "conditions": "scale 0 to 100", "from_the_text": "as §1, §2"}, "[11]": {"test_system": "black mustard (Brassica nigra)", "conditions": "scale 0 to 100", "from_the_text": "as §1, §2"}}, "data": [{"compound": "CCc1cc(-c2ccc(C(F)(F)F)cc2)nn1-c1c(O)cnn(C)c1=O", "note": "[Compound 11, 4-[5-ethyl-3-[4-(trifluoromethyl)phenyl]-1H-pyrazol-1-yl]-5-hydroxy-2-methyl-3(2H)-pyridazinone]", "values": [{"measurement": "Plant response rating, Dallisgrass", "setting": "[1]; 4 g ai/ha, Postemergence", "result": 60}, {"measurement": "Plant response rating, Dallisgrass", "setting": "[1]; 8 g ai/ha, Preemergence", "result": 20}, {"measurement": "Plant response rating, Dallisgrass", "setting": "[1]; 16 g ai/ha, Preemergence", "result": 35}, {"measurement": "Plant response rating, Dallisgrass", "setting": "[1]; 31 g ai/ha, Preemergence", "result": 85}, {"measurement": "Plant response rating, Dallisgrass", "setting": "[1]; Postemergence, 8 g ai/ha", "result": 75}, {"measurement": "Plant response rating, Dallisgrass", "setting": "[1]; Postemergence, 16 g ai/ha", "result": 90}, {"measurement": "Plant response rating, Dallisgrass", "setting": "[1]; Postemergence, 31 g ai/ha", "result": 90}, {"measurement": "Plant response rating, Dallisgrass", "setting": "[1]; Preemergence, 4 g ai/ha", "result": 10}, {"measurement": "Plant response rating, Crabgrass, Large", "setting": "[2]; 4 g ai/ha, Postemergence", "result": 60}, {"measurement": "Plant response rating, Crabgrass, Large", "setting": "[2]; 8 g ai/ha, Preemergence", "result": 0}, {"measurement": "Plant response rating, Crabgrass, Large", "setting": "[2]; 16 g ai/ha, Preemergence", "result": 30}, {"measurement": "Plant response rating, Crabgrass, Large", "setting": "[2]; 31 g ai/ha, Preemergence", "result": 100}, {"measurement": "Plant response rating, Crabgrass, Large", "setting": "[2]; Postemergence, 8 g ai/ha", "result": 70}, {"measurement": "Plant response rating, Crabgrass, Large", "setting": "[2]; Postemergence, 16 g ai/ha", "result": 95}, {"measurement": "Plant response rating, Crabgrass, Large", "setting": "[2]; Postemergence, 31 g ai/ha", "result": 100}, {"measurement": "Plant response rating, Crabgrass, Large", "setting": "[2]; Preemergence, 4 g ai/ha", "result": 0}, {"measurement": "Plant response rating, Crabgrass, Naked", "setting": "[3]; 4 g ai/ha, Postemergence", "result": 25}, {"measurement": "Plant response rating, Crabgrass, Naked", "setting": "[3]; 8 g ai/ha, Preemergence", "result": 40}, {"measurement": "Plant response rating, Crabgrass, Naked", "setting": "[3]; 16 g ai/ha, Preemergence", "result": 95}, {"measurement": "Plant response rating, Crabgrass, Naked", "setting": "[3]; 31 g ai/ha, Preemergence", "result": 100}, {"measurement": "Plant response rating, Crabgrass, Naked", "setting": "[3]; Postemergence, 8 g ai/ha", "result": 90}, {"measurement": "Plant response rating, Crabgrass, Naked", "setting": "[3]; Postemergence, 16 g ai/ha", "result": 95}, {"measurement": "Plant response rating, Crabgrass, Naked", "setting": "[3]; Postemergence, 31 g ai/ha", "result": 98}, {"measurement": "Plant response rating, Groundsel", "setting": "[4]; 4 g ai/ha, Postemergence", "result": 0}, {"measurement": "Plant response rating, Groundsel", "setting": "[4]; 16 g ai/ha, Preemergence", "result": 0}, {"measurement": "Plant response rating, Groundsel", "setting": "[4]; 31 g ai/ha, Preemergence", "result": 0}, {"measurement": "Plant response rating, Groundsel", "setting": "[4]; Postemergence, 8 g ai/ha", "result": 0}, {"measurement": "Plant response rating, Groundsel", "setting": "[4]; Postemergence, 16 g ai/ha", "result": 0}, {"measurement": "Plant response rating, Groundsel", "setting": "[4]; Postemergence, 31 g ai/ha", "result": 0}, {"measurement": "Plant response rating, Groundsel", "setting": "[4]; Preemergence, 4 g ai/ha", "result": 0}, {"measurement": "Plant response rating, Signalgrass", "setting": "[5]; 4 g ai/ha, Postemergence", "result": 90}, {"measurement": "Plant response rating, Signalgrass", "setting": "[5]; 16 g ai/ha, Preemergence", "result": 90}, {"measurement": "Plant response rating, Signalgrass", "setting": "[5]; 31 g ai/ha, Preemergence", "result": 100}, {"measurement": "Plant response rating, Signalgrass", "setting": "[5]; Postemergence, 8 g ai/ha", "result": 90}, {"measurement": "Plant response rating, Signalgrass", "setting": "[5]; Postemergence, 16 g ai/ha", "result": 90}, {"measurement": "Plant response rating, Signalgrass", "setting": "[5]; Postemergence, 31 g ai/ha", "result": 100}, {"measurement": "Plant response rating, Signalgrass", "setting": "[5]; Preemergence, 4 g ai/ha", "result": 0}, {"measurement": "Plant response rating, Sandbur, S.", "setting": "[6]; 4 g ai/ha, Postemergence", "result": 90}, {"measurement": "Plant response rating, Sandbur, S.", "setting": "[6]; 16 g ai/ha, Preemergence", "result": 90}, {"measurement": "Plant response rating, Sandbur, S.", "setting": "[6]; 31 g ai/ha, Preemergence", "result": 95}, {"measurement": "Plant response rating, Sandbur, S.", "setting": "[6]; Postemergence, 8 g ai/ha", "result": 95}, {"measurement": "Plant response rating, Sandbur, S.", "setting": "[6]; Postemergence, 16 g ai/ha", "result": 100}, {"measurement": "Plant response rating, Sandbur, S.", "setting": "[6]; Postemergence, 31 g ai/ha", "result": 100}, {"measurement": "Plant response rating, Sandbur, S.", "setting": "[6]; Preemergence, 4 g ai/ha", "result": 0}, {"measurement": "Plant response rating, Chickweed", "setting": "[7]; 4 g ai/ha", "result": 0}, {"measurement": "Plant response rating, Chickweed", "setting": "[7]; 8 g ai/ha", "result": 0}, {"measurement": "Plant response rating, Chickweed", "setting": "[7]; 16 g ai/ha", "result": 0}, {"measurement": "Plant response rating, Chickweed", "setting": "[7]; 31 g ai/ha", "result": 0}, {"measurement": "Plant response rating, Purslane", "setting": "[8]; 4 g ai/ha, Postemergence", "result": 0}, {"measurement": "Plant response rating, Purslane", "setting": "[8]; 16 g ai/ha, Preemergence", "result": 0}, {"measurement": "Plant response rating, Purslane", "setting": "[8]; 31 g ai/ha, Preemergence", "result": 0}, {"measurement": "Plant response rating, Purslane", "setting": "[8]; Postemergence, 8 g ai/ha", "result": 0}, {"measurement": "Plant response rating, Purslane", "setting": "[8]; Postemergence, 16 g ai/ha", "result": 0}, {"measurement": "Plant response rating, Purslane", "setting": "[8]; Postemergence, 31 g ai/ha", "result": 0}, {"measurement": "Plant response rating, Purslane", "setting": "[8]; Preemergence, 4 g ai/ha", "result": 0}, {"measurement": "Plant response rating, Quackgrass", "setting": "[9]; 4 g ai/ha, Postemergence", "result": 40}, {"measurement": "Plant response rating, Quackgrass", "setting": "[9]; 16 g ai/ha, Preemergence", "result": 60}, {"measurement": "Plant response rating, Quackgrass", "setting": "[9]; 31 g ai/ha, Preemergence", "result": 75}, {"measurement": "Plant response rating, Quackgrass", "setting": "[9]; Postemergence, 8 g ai/ha", "result": 65}, {"measurement": "Plant response rating, Quackgrass", "setting": "[9]; Postemergence, 16 g ai/ha", "result": 90}, {"measurement": "Plant response rating, Quackgrass", "setting": "[9]; Postemergence, 31 g ai/ha", "result": 95}, {"measurement": "Plant response rating, Quackgrass", "setting": "[9]; Preemergence, 4 g ai/ha", "result": 0}, {"measurement": "Plant response rating, Ryegrass, Italian", "setting": "[10]; 4 g ai/ha, Postemergence", "result": 75}, {"measurement": "Plant response rating, Ryegrass, Italian", "setting": "[10]; 16 g ai/ha, Preemergence", "result": 80}, {"measurement": "Plant response rating, Ryegrass, Italian", "setting": "[10]; 31 g ai/ha, Preemergence", "result": 100}, {"measurement": "Plant response rating, Ryegrass, Italian", "setting": "[10]; Postemergence, 8 g ai/ha", "result": 90}, {"measurement": "Plant response rating, Ryegrass, Italian", "setting": "[10]; Postemergence, 16 g ai/ha", "result": 95}, {"measurement": "Plant response rating, Ryegrass, Italian", "setting": "[10]; Postemergence, 31 g ai/ha", "result": 95}, {"measurement": "Plant response rating, Ryegrass, Italian", "setting": "[10]; Preemergence, 4 g ai/ha", "result": 20}, {"measurement": "Plant response rating, Mustard, Black", "setting": "[11]; 4 g ai/ha, Postemergence", "result": 0}, {"measurement": "Plant response rating, Mustard, Black", "setting": "[11]; 8 g ai/ha, Preemergence", "result": 0}, {"measurement": "Plant response rating, Mustard, Black", "setting": "[11]; 16 g ai/ha, Preemergence", "result": 0}, {"measurement": "Plant response rating, Mustard, Black", "setting": "[11]; 31 g ai/ha, Preemergence", "result": 0}, {"measurement": "Plant response rating, Mustard, Black", "setting": "[11]; Postemergence, 8 g ai/ha", "result": 0}, {"measurement": "Plant response rating, Mustard, Black", "setting": "[11]; Postemergence, 16 g ai/ha", "result": 0}, {"measurement": "Plant response rating, Mustard, Black", "setting": "[11]; Postemergence, 31 g ai/ha", "result": 0}, {"measurement": "Plant response rating, Mustard, Black", "setting": "[11]; Preemergence, 4 g ai/ha", "result": 0}]}]}
